Measurements: US9771333B2, “Quinazoline derivatives as TAM family kinase inhibitors” (SIGNALCHEM LIFESCIENCES CORP., priority 2013, dated 2017)

What was measured:
Type in all cases: biochemical
human Tyro3 = biological target: T1, human Tyro3 (Homo sapiens, UniProt Q06418); test: Kinase enzymatic activity assay (33P-radiolabeled phosphate transfer), Tyro3; details: recombinant human Tyro3 (455-end), poly(4:1 glu:tyr) substrate, 30 minutes
T1 construct: GST (N); made in house; host or cells: Sf9 insect cells (baculovirus)
T1 sequence (Q06418 455-890 limits assumed): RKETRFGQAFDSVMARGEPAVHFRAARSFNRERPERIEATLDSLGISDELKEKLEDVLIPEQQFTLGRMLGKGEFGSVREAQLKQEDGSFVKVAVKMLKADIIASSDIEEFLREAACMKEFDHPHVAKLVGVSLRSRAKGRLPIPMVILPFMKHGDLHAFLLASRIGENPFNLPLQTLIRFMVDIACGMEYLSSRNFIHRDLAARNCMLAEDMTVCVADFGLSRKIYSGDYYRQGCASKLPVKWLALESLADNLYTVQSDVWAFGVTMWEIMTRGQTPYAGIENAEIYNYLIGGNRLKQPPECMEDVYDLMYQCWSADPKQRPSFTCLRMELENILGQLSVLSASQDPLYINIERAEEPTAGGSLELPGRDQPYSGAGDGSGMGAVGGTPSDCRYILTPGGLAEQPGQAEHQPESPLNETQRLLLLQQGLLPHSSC
Excerpt: (§1) The identification of compounds of the invention as Tyro3, Axl or Mer inhibitors was readily accomplished using the recombinant human Tyro3, Axl and Mer proteins and employing the ^33P-radiolabeled phosphate transfer assay for which the procedure is known to someone skilled in the art or as described in Example 9.
(§2) Recombinant human Tyro3 (455-end, the gene accession number NM_006293), human Axl (473-end, the gene accession number NM_021913) and human Mer (578-872, the gene accession number NM_006343) were independently expressed by baculovirus in Sf9 insect cells using an N-terminal GST tag. The recombinant proteins were stored at −70° C. in a medium containing 50 mM Tris-HCl, pH 7.5, 150 mM NaCl, 10 mM glutathione, 0.1 mM EDTA, 0.25 mM DTT, 0.1 mM PMSF and 25% glycerol. The recombinant proteins were aliquoted into smaller quantities after centrifugation to avoid repeated handling and multiple freeze/thaw cycles for the most favorable performance.
(§3) Kinase Assay Buffer: This buffer solution consisted of the following components: 25 mM MOPS, pH 7.2, 12.5 mM β-glycerol-phosphate, 25 mM MgCl2, 5 mM EGTA, 2 mM EDTA and DTT 0.25 mM which was added prior to use.
(§4) Kinase Dilution Buffer: Kinase Assay Buffer was diluted at a 1:4 ratio (5× dilution) with distilled water.
(§5) [^33P]-ATP assay cocktail: In a designated radioactive working area, a 250 μM [^33P]-ATP assay cocktail was prepared by the addition of the following components: 150 μL of 10 mM ATP stock solution, 100 μL [^33P]-ATP (1 mci/100 μL), and 5.75 mL of kinase assay buffer. This solution was stored in 1 mL aliquots at −20° C.
(§6) ATP stock solution (10 mM): The ATP stock solution was prepared by dissolving 55 mg of ATP in 10 mL of kinase assay buffer. It was stored in 200 μL aliquots at −20° C.
(§7) Active Kinase Stock Solution: The active recombinant kinase protein (0.1 μg/μL) was diluted with Kinase Dilution Buffer and the activity was assayed using a serial dilution method. The specific activity is expressed in nmoL/min/mg.
(§8) Substrates: poly(4:1 glu:tyr) is the substrate used for each kinase Tyro3, Axl and Mer: The peptide substrate was dissolved in water to give the final concentration of 1 mg/mL.
(§9) Test compound solution: Test compound was dissolved in DMSO to obtain a 10 mM solution. The assay solution was prepared by adding 5 μL of this solution to […] of 10% DMSO/water to obtain the final concentration of 50 μM.
(§10) The enzymatic activity of all three kinases was determined as follows. Using a 96-well plate, the wells were divided into three categories: Blank wells, […] and Test wells. In Test wells, 5 μL of the test compound solution and 5 μL of the substrate solution were added. In Control wells, 5 μL of 10% DMSO/water and 5 μL of the substrate solution were added. In Blank wells, 10 μL of 10% DMSO/water was added. To each well was added 10 μL of Active Kinase Stock Solution to make up the volume in each well to 20 μL. All test samples, controls and blanks were run in duplicate. The reaction was initiated by the addition of 5 μL of [^33P]-ATP assay cocktail, bringing the final volume up to 25 μL in every well. The mixture was incubated at room temperature for 30 minutes. The reaction was terminated by transferring 10 μL of the reaction mixture into a Millipore MultiScreen filter plate (cat. number MSPHN6B50). The filter plate was washed in a 1% phosphoric acid solution with constant gentle shaking for 15 minutes and this step was repeated once. After the plate was dried in air, scintillation fluid was added to each well and the radioactivity in each well in CPM was counted by a Microbeta TriLux. The corrected CPM in each test well was determined by subtracting the average value of Blank well values. Percentage of inhibition of the kinase enzymatic activity by the test compound was determined using the following formula: […]
(§11) The IC50 values were determined in a similar way following a serial dilution of the test compound. […]

human Axl = biological target: T2, human Axl (Homo sapiens, UniProt P30530); test: Kinase enzymatic activity assay (33P-radiolabeled phosphate transfer), Axl; details: recombinant human Axl (473-end), poly(4:1 glu:tyr) substrate, 30 minutes
T2 construct: GST (N); made in house; host or cells: Sf9 insect cells (baculovirus)
T2 sequence (P30530 473-894 limits assumed): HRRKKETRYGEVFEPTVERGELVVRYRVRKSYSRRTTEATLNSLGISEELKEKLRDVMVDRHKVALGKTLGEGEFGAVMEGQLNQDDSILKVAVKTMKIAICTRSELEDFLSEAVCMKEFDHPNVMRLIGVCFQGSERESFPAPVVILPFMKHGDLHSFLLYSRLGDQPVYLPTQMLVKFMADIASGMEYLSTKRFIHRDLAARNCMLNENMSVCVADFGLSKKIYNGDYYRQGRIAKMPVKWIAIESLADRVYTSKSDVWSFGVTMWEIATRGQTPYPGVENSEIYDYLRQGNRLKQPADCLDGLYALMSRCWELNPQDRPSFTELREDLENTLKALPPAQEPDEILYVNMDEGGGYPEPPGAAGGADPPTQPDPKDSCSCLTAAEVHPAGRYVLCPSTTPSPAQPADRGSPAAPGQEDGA
Excerpt: as §1, §2, §3, §4, §5, §6, §7, §8, §9, §10, §11

human Mer = biological target: T3, human Mer (Homo sapiens, UniProt Q12866); test: Kinase enzymatic activity assay (33P-radiolabeled phosphate transfer), Mer; details: recombinant human Mer (578-872), poly(4:1 glu:tyr) substrate, 30 minutes
T3 construct: GST (N); made in house; host or cells: Sf9 insect cells (baculovirus)
T3 sequence (Q12866 578-872): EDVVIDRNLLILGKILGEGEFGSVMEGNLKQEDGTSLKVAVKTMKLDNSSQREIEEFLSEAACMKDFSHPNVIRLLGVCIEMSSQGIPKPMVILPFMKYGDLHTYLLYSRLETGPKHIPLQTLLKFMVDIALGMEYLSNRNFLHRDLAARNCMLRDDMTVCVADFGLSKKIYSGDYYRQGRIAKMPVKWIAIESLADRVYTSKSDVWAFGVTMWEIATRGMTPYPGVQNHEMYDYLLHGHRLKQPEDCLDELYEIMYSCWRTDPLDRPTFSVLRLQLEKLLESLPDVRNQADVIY
Excerpt: as §1, §2, §3, §4, §5, §6, §7, §8, §9, §10, §11

| Structure (SMILES) | IC50 (human Tyro3) [µM] | IC50 (human Axl) [µM] | IC50 (human Mer) [µM] |
| --- | --- | --- | --- |
| CN1CCN(CCOc2cc(OC3CCOCC3)c3c(Oc4cccc(C(=O)NCc5ccccc5)c4)ncnc3c2)CC1 [Example 2.32, N-benzyl-3-((7-(2-(4-methylpiperazin-1-yl)ethoxy)-5-((tetrahydro-2H-pyran-4-yl)oxy)quinazolin-4-yl)oxy)benzamide] | > 10 | 1 to 10 | > 10 |
| Cc1cc(Nc2ncnc3cc(OCCCN4CCOCC4)cc(OC4CCOCC4)c23)on1 [Example 2.35, 3-methyl-N-(7-(3-morpholinopropoxy)-5-((tetrahydro-2H-pyran-4-yl)oxy)quinazolin-4-yl)isoxazol-5-amine] | > 10 | 1 to 10 | 1 to 10 |
| Cc1nnc(Nc2ncnc3cc(OCC4CCN(C)CC4)cc(OC4CCOCC4)c23)s1 [Example 2.36, 5-methyl-N-(7-((1-methylpiperidin-4-yl)methoxy)-5-((tetrahydro-2H-pyran-4-yl)oxy)quinazolin-4-yl)-1,3,4-thiadiazol-2-amine] | > 10 | 1 to 10 | 1 to 10 |
| CN1CCC(COc2cc(OC3CCOCC3)c3c(Nc4nnc(C(F)(F)F)s4)ncnc3c2)CC1 [Example 2.37, N-(7-((1-methylpiperidin-4-yl)methoxy)-5-((tetrahydro-2H-pyran-4-yl)oxy)quinazolin-4-yl)-5-(trifluoromethyl)-1,3,4-thiadiazol-2-amine] | > 10 | 1 to 10 | > 10 |
| COCCN1CCN(c2cc(OC3CCOCC3)c3c(Nc4nc(C(F)(F)F)cs4)ncnc3c2)CC1 [Example 2.41, N-(7-(4-(2-methoxyethyl)piperazin-1-yl)-5-((tetrahydro-2H-pyran-4-yl)oxy)quinazolin-4-yl)-4-(trifluoromethyl)thiazol-2-amine] | > 10 | 1 to 10 | > 10 |
| Cc1cnc(Nc2ncnc3cc(OCC4CCN(C)CC4)cc(OC4CCOCC4)c23)s1 [Example 2.43, 5-methyl-N-(7-((1-methylpiperidin-4-yl)methoxy)-5-((tetrahydro-2H-pyran-4-yl)oxy)quinazolin-4-yl)thiazol-2-amine] | 1 to 10 | < 0.5 | < 0.5 |
| CN1CCC(CCOc2cc(OC3CCOCC3)c3c(Nc4nc(C(F)(F)F)cs4)ncnc3c2)CC1 [Example 2.45, N-(7-(2-(1-methylpiperidin-4-yl)ethoxy)-5-((tetrahydro-2H-pyran-4-yl)oxy)quinazolin-4-yl)-4-(trifluoromethyl)thiazol-2-amine] | > 10 | < 0.5 | 1 to 10 |

More lines, now with the values ahead:

| IC50 (human Tyro3) [µM] | IC50 (human Axl) [µM] | IC50 (human Mer) [µM] | Structure (SMILES) |
| --- | --- | --- | --- |
| 1 to 10 | 1 to 10 | > 10 | COC(=O)c1cccc(Oc2ncnc3cc(OCCN4CCN(C)CC4)cc(OC4CCOCC4)c23)c1 [Example 2.30, methyl 3-((7-(2-(4-methylpiperazin-1-yl)ethoxy)-5-((tetrahydro-2H-pyran-4-yl)oxy)quinazolin-4-yl)oxy)benzoate] |
| 0.5 to 1 | 1 to 10 | > 10 | COC(=O)Cc1cccc(Oc2ncnc3cc(OCCN4CCN(C)CC4)cc(OC4CCOCC4)c23)c1 [Example 2.31, methyl 2-(3-((7-(2-(4-methylpiperazin-1-yl)ethoxy)-5-((tetrahydro-2H-pyran-4-yl)oxy)quinazolin-4-yl)oxy)phenyl)acetate] |
| 0.5 to 1 | 1 to 10 | > 10 | CN1CCN(CCOc2cc(OC3CCOCC3)c3c(Oc4cccc(CC(=O)NCc5ccccc5)c4)ncnc3c2)CC1 [Example 2.33, N-benzyl-2-(3-((7-(2-(4-methylpiperazin-1-yl)ethoxy)-5-((tetrahydro-2H-pyran-4-yl)oxy)quinazolin-4-yl)oxy)phenyl)acetamide] |
| < 0.5 | 1 to 10 | 0.5 to 1 | COc1cc(OCC2CCN(C)CC2)cc2ncnc(Oc3ccc(F)cc3Cl)c12 [Example 2.34, 4-(2-chloro-4-fluorophenoxy)-5-methoxy-7-((1-methylpiperidin-4-yl)methoxy)quinazoline] |
| 1 to 10 | < 0.5 | 0.5 to 1 | CN1CCC(COc2cc(OC3CCOCC3)c3c(Nc4nncs4)ncnc3c2)CC1 [Example 2.38, N-(7-((1-methylpiperidin-4-yl)methoxy)-5-((tetrahydro-2H-pyran-4-yl)oxy)quinazolin-4-yl)-1,3,4-thiadiazol-2-amine] |
| 0.5 to 1 | < 0.5 | < 0.5 | CN1CCC(COc2cc(OC3CCOCC3)c3c(Nc4nccs4)ncnc3c2)CC1 [Example 2.39, N-(7-((1-methylpiperidin-4-yl)methoxy)-5-((tetrahydro-2H-pyran-4-yl)oxy)quinazolin-4-yl)thiazol-2-amine] |
| 1 to 10 | < 0.5 | 1 to 10 | Cc1cc(Nc2ncnc3cc(OCC4CCN(C)CC4)cc(OC4CCOCC4)c23)on1 [Example 2.40, 3-methyl-N-(7-((1-methylpiperidin-4-yl)methoxy)-5-((tetrahydro-2H-pyran-4-yl)oxy)quinazolin-4-yl)isoxazol-5-amine] |
| 1 to 10 | < 0.5 | < 0.5 | Cc1csc(Nc2ncnc3cc(OCC4CCN(C)CC4)cc(OC4CCOCC4)c23)n1 [Example 2.42, 4-methyl-N-(7-((1-methylpiperidin-4-yl)methoxy)-5-((tetrahydro-2H-pyran-4-yl)oxy)quinazolin-4-yl)thiazol-2-amine] |
